Data as given in PMC7912516, “New Antimicrobials Based on the Adarotene Scaffold with Activity against Multi-Drug Resistant Staphylococcus aureus and Vancomycin-Resistant Enterococcus” (Antibiotics, 2021).
“And” between values parts separate entries of the source, which are not always exact repeats. Equal entries are not always repeated. Where two headings read alike, the source gives them in different places.

Experiments:
[1] = test system: S. aureus strain 1 (MDR clinical isolate, MRSA, mecA positive); experiment: MIC/MBC by broth micro-dilution (CLSI); format: cell-based, Staphylococcus aureus; conditions: S. aureus Strain 1; for MBC: in square brackets
Description: (§1) The compounds were initially tested with a methicillin-resistant S. aureus and an E. faecalis clinical isolates (details in the experimental section), two MDR strains according to definition by Magiorakos et al.. The activity of studied compounds was assessed by broth micro-dilution method. Minimal Inhibitory Concentration (MIC), and Minimal Bactericidal Concentration (MBC) were determined and possible bacteriostatic or bactericidal activity was also investigated.
(§2) MICs and MBCs were determined according to CLSI (Clinical and Laboratory Standards Institute) guidelines, in triplicate. Results are shown as modal values of the three replicates. According to MIC and MBC data, the killing rate was calculated as the ratio between MBC and MIC on which basis it is possible to define the compounds tested as bactericides (killing rate = 1–4), or bacteriostatic (killing rate > 4).
(§3) Preparation of the solution containing molecules: for each molecule to be tested, solutions were made as DMSO stock, with a concentration of 2.560 mg/mL. Scalar dilutions were than prepared directly on plates by using Mueller Hinton Broth (MHB) as a growth medium (range 0.5–256 µg/mL).
(§4) Bacterial suspension preparation: cryostrains preserved at −80 °C were recovered by incubation in growth medium (Brain Heart Infusion Broth, BHI) for 24–48 h at 35 ± 2 °C followed by passages in agar growth medium (Columbia Blood Agar). Colonies with less than 30 h were suspended in MHB with the purpose to prepare a bacterial suspension with a turbidity of 0.5 MF, containing approximately 1.5 × 10^8 cfu/mL. This suspension was than diluted in MHB until reaching a final concentration of 5 × 10^4 CFU/well. Simultaneously, check in broth-microdilution only with solvent (in order to exclude that the effect of growth inhibition might be due to the drug solution solvent), positive growth control in absence of DMSO and drug, and negative purity control only with injection broth were performed.
S. aureus strain 1 (collection, MDR): mecA positive; MRSA, β-lactamase positive, resistant to ciprofloxacin, gentamicin and erythromycin.

[2] = test system: E. faecalis strain 1 (MDR clinical isolate); experiment: MIC/MBC by broth micro-dilution (CLSI); format: cell-based, Enterococcus faecalis; conditions: for MBC: in square brackets
Description: as §1, §2, §3, §4
E. faecalis strain 1 (collection, MDR) vanA/B negative; aminoglycosides high-level resistant to aminoglycosides (gentamicin and streptomycin) and ampicillin.

[3] = test system: tumor cell line IGROV-1; conditions: ± SD, read-out: IC50 (concentration required for 50% inhibition of cell growth), cited from earlier work
[4] = test system: tumor cell line H-460 NCI; parameters: method as in PMID 32920362; conditions: ± SD, ref [17], read-out: IC50 (concentration required for 50% inhibition of cell growth); cited from earlier work
[5] = test system: S. aureus ATCC 25923 (reference strain); experiment: MIC/MBC by broth micro-dilution (CLSI); format: cell-based; conditions: Staphylococcus aureus; for MIC: ATCC25923, modal value
Description: (§5) To expand the previously obtained results compounds 16 and 17 were also tested on wider a selection of strains: two other MDR S. aureus and E. faecalis clinical isolates, the S. aureus ATCC 25923 and the E. faecalis ATCC 51299 reference strains. Compound 2, which was endowed with low antimicrobial activity, was tested as well, to confirm its low efficacy. Adarotene was used as control compound (Table 2).
as §2, §3, §4
S. aureus ATCC 25923 (reference strain): mecA negative; multi-susceptible.

[6] = test system: S. aureus strain 2 (MDR clinical isolate); experiment: MIC/MBC by broth micro-dilution (CLSI); format: cell-based; conditions: Staphylococcus aureus, modal value
Description: as §5, §2, §3, §4
S. aureus strain 2 (collection, MDR): mecA negative; β-lactamase positive, resistant to erythromycin, gentamicin, clindamycin and fusidic acid.

[7] = test system: E. faecalis ATCC 51299 (reference strain, vanB positive); experiment: MIC/MBC by broth micro-dilution (CLSI); format: cell-based; conditions: Enterococcus faecalis; for MIC: ATCC51299, modal value
Description: as §5, §2, §3, §4
E. faecalis ATCC 51299 (reference strain): vanB positive.

[8] = test system: E. faecalis strain 2 (MDR clinical isolate); experiment: MIC/MBC by broth micro-dilution (CLSI); format: cell-based; conditions: Enterococcus faecalis, modal value
Description: as §5, §2, §3, §4
E. faecalis strain 2 (collection, MDR) vanA/B negative; aminoglycosides high-level resistant to aminoglycosides (gentamicin and strseptomycin) and ampicillin.

[9] = Staphylococcus aureus, MRSA, modal value of three replicates, read-out: MIC
[10] = Staphylococcus aureus, MRSA, modal value, read-out: MIC
[11] = Staphylococcus aureus, MRSA, modal value
[12] = Enterococcus faecalis, modal value of three replicates, read-out: MIC
[13] = Enterococcus faecalis, modal value, read-out: MIC
[14] = modal value of three replicates
[15] = Enterococcus faecalis, modal value

Compound | MIC [1, 9] | MIC [1, 10] | MBC [1, 11] | MIC [2, 12] | MIC [2, 13] | IC50 ([3]; ref [14]) | MIC [1, 14] | MBC [2, 15] | MIC [2, 14] | IC50 ([3]; ref [13]) | IC50 ([3]; ref [15]) | IC50 [4] | MBC ([5]; ATCC25923, in square brackets, modal value) | MIC [5] | MBC ([6]; in square brackets) | MIC [6] | MBC ([7]; ATCC51299, in square brackets, modal value) | MIC [7] | MBC ([8]; in square brackets) | MIC [8]
COc1cc(-c2ccc(/C=C/C(=O)O)cc2)cc(C23CC4CC(CC(C4)C2)C3)c1O [Compound 11] | 16 µg/mL | 40 µM | 32 µg/mL and 80 µM | 8 µg/mL | 20 µM |  |  |  |  |  |  |  |  |  |  |  |  |  |  | 
O=C(O)/C=C/c1ccc(-c2cc3c(c(C45CC6CC(CC(C6)C4)C5)c2)OCCO3)cc1 [Compound 12] | 4 µg/mL | 9 µM |  | 2 µg/mL | 5 µM | 0.23 ± 0.07 µM |  |  |  |  |  |  |  |  |  |  |  |  |  | 
O=C(O)/C(F)=C\c1ccc(-c2ccc(O)c(C34CC5CC(CC(C5)C3)C4)c2)cc1 [Compound 7] | 2 to 4 µg/mL | 10 µM | 16 µg/mL and 40 µM |  | 10 µM |  | 4 µg/mL | 16 µg/mL and 40 µM | 1 to 4 µg/mL and 4 µg/mL | > 3 µM |  |  |  |  |  |  |  |  |  | 
O=Cc1cc(-c2ccc(/C=C/C(=O)O)cc2)cc(C23CC4CC(CC(C4)C2)C3)c1O [Compound 15] | 64 µg/mL | 159 µM |  | 64 µg/mL | 159 µM | 1.64 ± 0.03 µM |  |  |  |  |  |  |  |  |  |  |  |  |  | 
O=C(/C=C/c1ccc(-c2ccc(O)c(C34CC5CC(CC(C5)C3)C4)c2)cc1)NO [Compound 5] | ≥ 32 µg/mL | 164 µM |  |  | > 657 µM |  | 64 µg/mL |  | >= 32 µg/mL and >256 µg/mL |  | 1.1 ± 0.6 µM |  |  |  |  |  |  |  |  | 
O=C(/C=C/c1ccc(-c2ccc(O)c(C34CC5CC(CC(C5)C3)C4)c2)cc1)Nc1ccc(O)cc1 [Compound 6] |  | > 549 µM |  |  | > 550 µM |  | >= 32 µg/mL and >256 µg/mL |  | >= 32 µg/mL and >256 µg/mL | 6.6 ± 0.5 µM |  |  |  |  |  |  |  |  |  | 
N=C(N)NCc1cc(/C=C/C(=O)O)ccc1-c1ccc(O)c(C23CC4CC(CC(C4)C2)C3)c1 [Compound 19] | 32 to 128 µg/mL | 72 µM | 64 µg/mL and 144 µM | 32 to 128 µg/mL | 72 µM |  | 32 µg/mL | 64 µg/mL and 144 µM | 32 µg/mL |  |  | > 10 µM |  |  |  |  |  |  |  | 
O=C(O)/C=C/c1ccc(-c2ccc(O)c(C34CC5CC(CC(C5)C3)C4)c2)cc1 [Adarotene, adarotene] | 8 µg/mL | 21 µM | 16 µg/mL and 42 µM | 1 µg/mL | 3 µM |  |  | 32 µg/mL and 85 µM |  | 0.23 ± 0.08 µM |  |  | 16 µg/mL and 42 µM | 8 µg/mL and 21 µM | 8 µg/mL and 21 µM | 4 µg/mL and 10 µM | 32 µg/mL and 84 µM | 2 µg/mL and 5 µM | 32 µg/mL and 84 µM | 4 µg/mL and 10 µM
O=Cc1cc(/C=C/C(=O)O)ccc1-c1ccc(O)c(C23CC4CC(CC(C4)C2)C3)c1 [Compound 20] | 2 µg/mL | 5 µM | 32 µg/mL and 80 µM | 8 µg/mL | 20 µM |  |  |  |  |  |  | 3.2 ± 0.2 µM |  |  |  |  |  |  |  | 
O=C(O)C=Cc1ccc(-c2ccc(OCCCCO)c(C34CC5CC(CC(C5)C3)C4)c2)cc1 [Compound 2, 3-[3′-adamantan-1-yl-4′-(hydroxybutoxy)-biphenyl-4-yl]-acrylic acid] | > 256 µg/mL | 573 µM |  | > 256 µg/mL | 287 µM |  | 256 µg/mL |  | 128 µg/mL |  |  |  |  | 256 µg/mL and 572 µM |  | 256 µg/mL and 572 µM |  | 64 µg/mL and 143 µM |  | 128 µg/mL and 286 µM
C/C(=C\c1ccc(-c2ccc(O)c(C34CC5CC(CC(C5)C3)C4)c2)cc1)C(=O)O [Compound 8] | 2 to 4 µg/mL | 5 µM | 8 µg/mL and 20 µM | 1 to 4 µg/mL | 3 µM |  | 2 µg/mL | 8 µg/mL and 21 µM | 1 µg/mL | 7.19 ± 1.27 µM |  |  |  |  |  |  |  |  |  | 
CC(=O)NCc1cc(-c2ccc(/C=C/C(=O)O)cc2)cc(C23CC4CC(CC(C4)C2)C3)c1O [Compound 13] | 8 µg/mL | 18 µM | 16 µg/mL and 36 µM | 4 µg/mL | 9 µM | 1.24 ± 0.07 µM |  | 16 µg/mL and 36 µM |  |  |  |  |  |  |  |  |  |  |  | 
N#C/C=C/c1ccc(-c2ccc(O)c(C34CC5CC(CC(C5)C3)C4)c2)cc1 [Compound 4] |  | 361 µM | 128 µg/mL and 361 µM | ≥ 32 µg/mL | 90 µM |  | >= 32 µg/mL and 128 [128] µg/mL | 128 µg/mL and 360 µM | 32 µg/mL | 8.3 ± 1.4 µM |  |  |  |  |  |  |  |  |  | 
O=C(O)/C=C/c1ccc(-c2ccc(O)c(C34CC5CC(CC(C5)C3)C4)c2)c(C=NOCC(=O)O)c1 [Compound 18] |  | 269 µM |  |  | 269 µM |  | 32 to 128 µg/mL and 128 µg/mL |  | 32 to 128 µg/mL and 128 µg/mL |  |  | > 10 µM |  |  |  |  |  |  |  | 
CC(C)(C)c1cc(-c2ccc(/C=C/C(=O)O)cc2)ccc1O [Compound 1] | 64 µg/mL | 216 µM |  | > 256 µg/mL | > 864 µM |  |  |  |  | 30 µM |  |  |  |  |  |  |  |  |  | 
O=C(O)CCc1ccc(-c2ccc(O)c(C34CC5CC(CC(C5)C3)C4)c2)cc1 [Compound 10] | 16 µg/mL | 42 µM | 16 µg/mL and 42 µM | 16 µg/mL | 42 µM |  | 16 [16] µg/mL | 32 µg/mL and 85 µM | 16 µg/mL | 48.4 ± 0.88 µM |  |  |  |  |  |  |  |  |  | 
